ChEMBL document CHEMBL2434901, “2-Phenylbenzofuran derivatives alleviate mitochondrial damage via the inhibition of β-amyloid aggregation” (Bioorg Med Chem Lett, 2013)
Active and inactive are the calls of the source. The calls are words filed in the database; no cut-off is given here.

Experiments:
[1] = biological target: Amyloid-beta precursor protein (Homo sapiens) (UniProt P05067); assay: Inhibition of amyloid beta (unknown origin) fibril formation at 10 uM by thioflavin T fluorescent dye assay
Amyloid-beta precursor protein (Homo sapiens), sequence (P05067 whole entry): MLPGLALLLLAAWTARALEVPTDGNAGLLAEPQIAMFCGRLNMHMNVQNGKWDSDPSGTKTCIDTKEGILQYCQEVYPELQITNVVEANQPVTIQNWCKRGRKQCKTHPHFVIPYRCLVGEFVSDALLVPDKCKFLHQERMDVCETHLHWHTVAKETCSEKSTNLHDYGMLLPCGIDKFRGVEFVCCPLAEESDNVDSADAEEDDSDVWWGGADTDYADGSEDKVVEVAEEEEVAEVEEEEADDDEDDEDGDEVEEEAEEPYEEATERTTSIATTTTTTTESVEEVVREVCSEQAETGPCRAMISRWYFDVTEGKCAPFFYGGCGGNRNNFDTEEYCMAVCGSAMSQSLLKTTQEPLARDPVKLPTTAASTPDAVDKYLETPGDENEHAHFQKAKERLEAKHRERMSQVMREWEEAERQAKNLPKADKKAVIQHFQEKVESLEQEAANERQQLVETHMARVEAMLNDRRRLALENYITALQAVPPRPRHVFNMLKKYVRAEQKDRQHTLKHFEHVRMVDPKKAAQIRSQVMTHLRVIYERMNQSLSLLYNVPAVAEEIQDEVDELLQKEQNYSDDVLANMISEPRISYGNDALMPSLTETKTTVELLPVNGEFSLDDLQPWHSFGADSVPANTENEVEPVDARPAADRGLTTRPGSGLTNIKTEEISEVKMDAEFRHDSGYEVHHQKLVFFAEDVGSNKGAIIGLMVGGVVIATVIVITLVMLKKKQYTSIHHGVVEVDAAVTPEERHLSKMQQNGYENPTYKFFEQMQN

[2] = Cytotoxicity against mouse HT22 cells assessed as cell viability at 10 uM by MTT assay relative to control; assay type: cell-based, HT-22; settings: read-out: Activity
HT-22 [3] = assay: Neuroprotective activity in mouse HT22 cells assessed as reduction of amyloid beta (1 to 42)-induced cytotoxicity by measuring green to red fluorescence ratio using JC1 staining at 10 uM after 10 mins relative to amyloid beta (1 to 42) treated control; assay type: functional
HT-22 [4] = assay: Neuroprotective activity in mouse HT22 cells assessed as reduction of amyloid beta (1 to 42)-induced cytotoxicity by measuring green to red fluorescence ratio using JC1 staining at 10 uM after 10 mins relative to control; assay type: functional; settings: HT-22, 10 min
[5] = biological target: Amyloid-beta precursor protein (Homo sapiens) (UniProt P05067); assay: Inhibition of amyloid beta (1 to 42) (unknown origin) oligomerization at 10 uM after 2 hrs by SDS-PAGE analysis

| SMILES | inhibition [1] | also measured |
| --- | --- | --- |
| COc1ccc(-c2cc3cc(/C=C/C(=O)O)cc(O)c3o2)cc1O | 43.3% | viability at 10 µM [2]: 104%; Ratio (HT-22 [3]): 122.1; inhibition at 10 µM (HT-22 [4]): 14.5% |
| COc1cc(/C=C/C(=O)O)cc2cc(-c3cccc(N(C)C)c3)oc12 | 34.8% |  |
| COc1cc(/C=C/C(=O)O)cc2cc(-c3ccccc3)oc12 | 0% |  |
| O=C(O)/C=C/c1cc(O)c2oc(-c3ccccc3O)cc2c1 | 28.3% |  |
| CN(C)c1ccc(-c2cc3cc(/C=C/C(=O)O)ccc3o2)cc1 | 57% |  |
| COc1cc(/C=C/C(=O)O)cc2cc(-c3ccc(F)c(N(C)C)c3)oc12 | 9.9% |  |
| COc1cc(/C=C/C(=O)O)cc2cc(-c3ccc(N(C)C)cc3)oc12 | 72.6% | viability at 10 µM [2]: 93.3%; Ratio (HT-22 [3]): 90.3; inhibition [5]: Active |
| O=C(O)/C=C/c1cc(O)c2oc(-c3ccc(F)cc3)cc2c1 | 26.7% |  |
| COc1cc(/C=C/C(=O)O)cc2cc(-c3ccccc3N(C)C)oc12 | 3.7% |  |
| COc1ccccc1-c1cc2cc(/C=C/C(=O)O)cc(OC)c2o1 | 0% |  |
| O=C(O)/C=C/c1cc(O)c2oc(-c3ccccc3F)cc2c1 | 19.7% |  |
| COc1cccc(-c2cc3cc(/C=C/C(=O)O)cc(OC)c3o2)c1 | 0% |  |
| CN(C)c1ccc(-c2cc3cc(/C=C/C(=O)O)cc(O)c3o2)cc1F | 49.8% | viability at 10 µM [2]: 111%; Ratio (HT-22 [3]): 115.7; inhibition at 10 µM (HT-22 [4]): 22.3%; inhibition [5]: Active |
| CN(C)c1ccccc1-c1cc2cc(/C=C/C(=O)O)cc(O)c2o1 | 8.1% |  |
| COc1ccc(-c2cc3cc(/C=C/C(=O)O)cc(OC)c3o2)cc1 | 12.5% |  |
| COc1cc(/C=C/C(=O)O)cc2cc(-c3cccc(F)c3)oc12 | 0.4% |  |
| COc1cc(/C=C/C(=O)O)cc2cc(-c3ccc(F)cc3)oc12 | 2.7% |  |
| O=C(O)/C=C/c1cc(O)c2oc(-c3cccc(O)c3)cc2c1 | 0% |  |
| COc1cc(/C=C/C(=O)O)cc2cc(-c3cccc(O)c3)oc12 | 0% |  |
| COc1cc(/C=C/C(=O)O)ccc1O | 42.8% | inhibition [5]: Active |

| SMILES | inhibition [1] | also measured |
| --- | --- | --- |
| COc1ccc(-c2cc3cc(/C=C/C(=O)O)cc(O)c3o2)cc1 | 34.2% |  |
| COc1ccc(-c2cc3cc(/C=C/C(=O)O)cc(O)c3o2)cc1N(C)C | 32.5% |  |
| O=C(O)/C=C/c1cc(O)c2oc(-c3ccc(O)cc3)cc2c1 | 22.4% |  |
| COc1cccc(-c2cc3cc(/C=C/C(=O)O)cc(O)c3o2)c1 | 0% |  |
| COc1cc(-c2cc3cc(/C=C/C(=O)O)cc(OC)c3o2)ccc1N(C)C | 50.2% | viability at 10 µM [2]: 104%; Ratio (HT-22 [3]): 104.2; inhibition [5]: Active |
| CN(C)c1ccc(-c2cc3cc(/C=C/C(=O)O)cc(O)c3o2)cc1 | 70.6% | viability at 10 µM [2]: 100%; Ratio (HT-22 [3]): 123.2; inhibition at 10 µM (HT-22 [4]): 73.1%; inhibition [5]: Active |
| COc1cc(/C=C/C(=O)O)cc2cc(-c3ccc(N(C)C)c(F)c3)oc12 | 57.5% | viability at 10 µM [2]: 102%; Ratio (HT-22 [3]): 103.1; inhibition [5]: Active |
| COc1ccccc1-c1cc2cc(/C=C/C(=O)O)cc(O)c2o1 | 0% |  |
| O=C(O)/C=C/c1cc(O)c2oc(-c3ccccc3)cc2c1 | 16.8% |  |
| COc1cc(/C=C/C(=O)O)cc2cc(-c3ccc(O)cc3)oc12 | 14.8% |  |
| CN(C)c1cc(-c2cc3cc(/C=C/C(=O)O)cc(O)c3o2)ccc1F | 16.8% |  |
| COc1cc(-c2cc3cc(/C=C/C(=O)O)cc(OC)c3o2)ccc1O | 28.4% |  |
| O=C(O)/C=C/c1cc(O)c2oc(-c3cccc(F)c3)cc2c1 | 14.3% |  |
| COc1cc(/C=C/C(=O)O)cc2cc(-c3ccccc3O)oc12 | 18.1% |  |
| COc1ccc(-c2cc3cc(/C=C/C(=O)O)cc(OC)c3o2)cc1O | 0% |  |
| COc1cc(-c2cc3cc(/C=C/C(=O)O)cc(O)c3o2)ccc1O | 42.6% | viability at 10 µM [2]: 105%; Ratio (HT-22 [3]): 115.9 |
| COc1cc(-c2cc3cc(/C=C/C(=O)O)cc(O)c3o2)ccc1N(C)C | 45.9% | viability at 10 µM [2]: 102%; Ratio (HT-22 [3]): 113.4; inhibition at 10 µM (HT-22 [4]): 45%; inhibition [5]: Active |
| CN(C)c1cccc(-c2cc3cc(/C=C/C(=O)O)cc(O)c3o2)c1 | 33.3% |  |
| COc1cc(/C=C/C(=O)O)cc2cc(-c3ccccc3F)oc12 | 7% |  |
| COc1ccc(-c2cc3cc(/C=C/C(=O)O)cc(OC)c3o2)cc1N(C)C | 11.7% |  |
